In US11510428B2, “Rebaudioside B and derivatives” (SWEET GREEN FIELDS INTERNATIONAL CO., LIMITED, priority 2011, dated 2022):

What was measured:
[1] = Taste comparison between RB and RA by experts (Example 7); type: in vivo, human; details: 400 ppm aqueous solution
From the text: Taste comparison between RB (prepared in Example 1, first part) and RA Purity of RA was 99.0% by HPLC and RB was 99.1% by HPLC.
RB sample: 400 ppm aqueous solution
RA sample: 400 ppm aqueous solution

[2] = General taste and sweetness statements on steviol glycosides, RA, RB and RB salt (background and description); type: in vivo
[3] = cited from earlier work
[4] = Sensory evaluation after adding Reb D to samples of Example 9 (Example 10); type: in vivo, human; details: total concentration of rebaudiosides 400 ppm

Rebaudioside B [RB]
Taste profile [1]: tasted better than RA
Bitterness ([1]; 7/10 experts): less bitterness than RA
Sweetness ([1]; 7/10 experts): lesser sweetness than RA
On-set profile ([2]; compared with other steviol glycosides): short on-set profile

C=C1C[C@@]23CC[C@H]4[C@@](C)(CCC[C@@]4(C)C(=O)O[C@@H]4O[C@H](CO)[C@@H](O)[C@H](O)[C@H]4O)[C@@H]2CC[C@]1(O[C@@H]1O[C@H](CO)[C@@H](O)[C@H](O[C@@H]2O[C@H](CO)[C@@H](O)[C@H](O)[C@H]2O)[C@H]1O[C@@H]1O[C@H](CO)[C@@H](O)[C@H](O)[C@H]1O)C3 [RA, Rebaudioside A]
Bitterness and aftertaste ([3]; 100% purity RA, e.g. 500 ppm aqueous solution): appear strongly at higher concentrations
Taste quality ([3]; increased sweetness and decreased bitterness, Phytochemistry 68, 2007): better than stevioside
Bitterness ([1]; 7/10 experts): strong bitterness profile
Concentration that provides maximum sweetness ([2]; aqueous solution): About 250 ppm
Concentration above which there is no increased perceived sweetness ([2]; in food products): about 500 ppm

C=C1C[C@@]23CC[C@H]4[C@@](C)(CCC[C@@]4(C)C(=O)O[C@@H]4O[C@H](CO)[C@@H](O)[C@H](O)[C@H]4O[C@@H]4O[C@H](CO)[C@@H](O)[C@H](O)[C@H]4O)[C@@H]2CC[C@]1(O[C@@H]1O[C@H](CO)[C@@H](O)[C@H](O[C@@H]2O[C@H](CO)[C@@H](O)[C@H](O)[C@H]2O)[C@H]1O[C@@H]1O[C@H](CO)[C@@H](O)[C@H](O)[C@H]1O)C3 [Reb D, Rebaudioside D]
Sensory taste profile on addition of Reb D [4]: can improve sensory taste profile
